Series [1] concerns the target T1, EGFR (Homo sapiens, UniProt P00533). The series is described as follows: In vitro inhibition of EGFR using a scintillant proximity assay (C1). It counts as biochemical. On the set-up: 0.5 μg EGFR-kinase domain/well. To be noted: EGFR-kinase domain, poly(GT)biotin, 5.0 μM unlabeled ATP, 30° C. 60 minutes; read-out: EGFR SPA (C1): IC50. On the procedure: In the present EGFR SPA kinase reaction assay, a kinase substrate consisting of biotinylated poly(L-glutamic acid-L-tyrosine) (poly(GT)biotin), is incubated with the aforementioned protein in the presence of (^33P) radiolabeled ATP. (^33P) phosphorylation of the substrate is subsequently measured as light energy emitted using streptavidin-coated SPA beads (Amersham Pharmacia Biotech) by trapping and quantifying the binding of the biotin tagged and radiolabeled substrate.
The EGFR SPA kinase reaction is performed at 30° C. for 60 minutes in a 96-well microtiter plate. For each of the tested compounds a full dose response 1·10^−6M to 1·10^−10M has been performed. IRESSA® and Tarceva™ (erlotinib) were used as reference compounds. The 100 μl reaction volume contains 54.5 mM TrisHCl pH 8.0, 10 mM MgCl2, 100 μM Na3VO4, 5.0 μM unlabeled ATP, 1 mM DTT, 0.009% BSA, 0.8 μCi ^33P-ATP, 0.35 μg/well poly(GT)biotin and 0.5 μg EGFR-kinase domain/well. The reaction is stopped by adding to each well 100 μl of the streptavidin beads (10 mg/ml in PBS+100 mM EDTA+100 μM ATP). The plates are than shaked at 300 rpm for 30 min to allow binding of the biotinylated substrate to the streptavidin coated beads. Than the beads are allowed to settle at the bottom of the plate for 30 minutes. The microtiterplates are centrifuges at 800 rpm for 10 minutes and the amount of phosphorylated (^33P) Poly(GT)biotin is determined by counting (30 sec/well) in a microtiterplate scintillation counter.
Target sequence in this assay (P00533 712-979 limits assumed): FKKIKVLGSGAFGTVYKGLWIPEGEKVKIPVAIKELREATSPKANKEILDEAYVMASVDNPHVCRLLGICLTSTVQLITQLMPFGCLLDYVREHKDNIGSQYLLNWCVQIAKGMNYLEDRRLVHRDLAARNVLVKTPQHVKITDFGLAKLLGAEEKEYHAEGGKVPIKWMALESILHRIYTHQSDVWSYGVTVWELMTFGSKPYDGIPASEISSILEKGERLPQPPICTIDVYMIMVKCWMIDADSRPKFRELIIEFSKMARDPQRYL

For series [2], the target named is T1, EGFR. The series is described as follows: ELISA assay of EGFR tyrosine kinase activity (C4). It counts as biochemical. The following applies: poly(Glu, Tyr) coated plate, 5 μM ATP, room temperature 10 min. The method, then:
The EGFR ELISA is generally described by Yang, E. B. et al., 2001, Biochimica et Biophysica Acta, 1550; 144.
For the determination of EGFR tyrosine kinase activity, 100 μl of 0.4 μg/ml poly(Glu, Tyr) in PBS was coated per well on a 96-well microplate at 37° C. overnight. […] After washing three times with PBS the plates were either used immediately or stored at 4° C. Prior to the determination of the EGFR tyrosine kinase activity, the coated plates were washed two times with PBS. Next, to each well 88 μl of an ATP dilution (50 mM Tris HCl pH 8.0, 10 mM MgCl2, 100 μM Na3VO4, 1 mM DTT, 5 μM ATP) and 2 μl with various concentrations of the compounds to be tested, were added. The EGFR tyrosine kinase-catalysed reaction was started by the addition of 10 μl of diluted EGFR (dilution→0.05 μg per well enzyme diluted in 50 mM TrisHCl pH 8.0+0.1% BSA). After incubation at room temperature for 10 min, the reaction was stopped by washing five times with PBS with 0.1% Tween 20. Subsequently […] of recombinant anti-phosphotyrosine horseradish peroxidase conjugate (1:2500) in BSA (10 mg/ml in PBS) was added. After incubation at room temperature for 1 h, the microplate was washed five times with PBS/Tween 20. After the microplate was incubated with 100 μl of TMB-ELISA (1-step Ultra TMB-ELISA, Pierce) until colour development, 100 μl of 0.5 M H2SO4 was added to stop the reaction, and it was read in a microplate reader at 450-655 nm.
Target sequence in this assay (P00533 25-1210): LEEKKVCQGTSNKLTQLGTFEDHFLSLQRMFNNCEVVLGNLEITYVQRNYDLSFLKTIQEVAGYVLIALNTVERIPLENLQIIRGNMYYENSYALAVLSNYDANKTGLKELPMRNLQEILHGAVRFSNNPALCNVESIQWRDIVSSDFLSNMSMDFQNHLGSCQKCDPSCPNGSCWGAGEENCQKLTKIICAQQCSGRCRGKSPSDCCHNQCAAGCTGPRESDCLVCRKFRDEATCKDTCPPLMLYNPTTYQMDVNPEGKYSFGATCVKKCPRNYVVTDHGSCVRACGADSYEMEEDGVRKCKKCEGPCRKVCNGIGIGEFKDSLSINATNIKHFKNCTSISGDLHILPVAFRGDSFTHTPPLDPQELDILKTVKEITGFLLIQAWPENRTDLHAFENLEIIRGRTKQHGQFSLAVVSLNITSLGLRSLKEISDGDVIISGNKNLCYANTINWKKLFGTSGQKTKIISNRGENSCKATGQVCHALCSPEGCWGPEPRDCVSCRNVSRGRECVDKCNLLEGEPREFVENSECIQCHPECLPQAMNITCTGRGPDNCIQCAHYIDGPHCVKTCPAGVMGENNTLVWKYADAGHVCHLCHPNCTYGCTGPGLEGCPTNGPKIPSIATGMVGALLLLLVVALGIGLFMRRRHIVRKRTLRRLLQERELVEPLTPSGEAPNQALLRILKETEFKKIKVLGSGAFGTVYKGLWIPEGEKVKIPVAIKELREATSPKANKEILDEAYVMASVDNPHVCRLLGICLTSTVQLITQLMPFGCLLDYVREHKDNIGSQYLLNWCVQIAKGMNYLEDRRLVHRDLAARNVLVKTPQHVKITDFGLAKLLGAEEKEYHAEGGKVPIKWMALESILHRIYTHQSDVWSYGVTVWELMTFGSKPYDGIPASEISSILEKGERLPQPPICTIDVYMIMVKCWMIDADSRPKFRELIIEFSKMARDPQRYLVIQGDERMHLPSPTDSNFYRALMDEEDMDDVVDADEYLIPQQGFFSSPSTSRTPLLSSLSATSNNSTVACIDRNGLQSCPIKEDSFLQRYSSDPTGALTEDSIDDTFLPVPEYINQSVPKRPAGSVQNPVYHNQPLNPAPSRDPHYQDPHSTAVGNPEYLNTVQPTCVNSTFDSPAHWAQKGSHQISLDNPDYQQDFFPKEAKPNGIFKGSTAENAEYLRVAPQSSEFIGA

In series [3] the test system is SKOV3 cells. The experiment in a line: Serum starved proliferation assay on the ovarian carcinoma SKOV3 cells (C3). The class given is cell-based. The following applies: Homo sapiens, SK-OV-3, 72 h, EGF stimulated (100 ng/ml, 72 hours, serum free) or 72 hours with compounds; MTT cell viability assay; read-out: SKOV3 cell (C3): pIC50 (converted). The gist of the method: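 SKOV3 cells grown 24 h in 10% FCS, then treated with compound under serum-free conditions (37 °C, 5% CO2) and stimulated 72 h with EGF at 100 ng/ml final; read-out by MTT viability. Alternative format: compound for 72 h after the same 24 h FCS step, also by MTT.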

Series [4] relates to A431 cells. The series is described as follows: Proliferation assay on the squamous carcinoma cell line A431 cells (C5). It counts as cell-based. The following applies: Homo sapiens, A-431; 72 hours with compounds; MTT cell viability assay; read-out: A431 cell (C5): pIC50 (converted). The method, then:
The squamous carcinoma cell line (A431) was used in a cell proliferation assay, to assess the inhibitory effect of the compounds in whole cells.
In a first step the A431 cells were incubated for 24 hours in the presence of 10% FCS serum. In the second step the cells were incubated for 72 hours with the compounds to be tested at a final concentration of 100 ng/ml. The effect of the compounds on the cell proliferation was finally assessed in a standard MTT cell viability assay.

In series [5] the target is T1, EGFR. The experiment in a line: In vitro inhibition of EGFR, Flash Plate or glass-fiber filter technology (C2). On the set-up: 0.5 μg EGFR-kinase domain/well. It counts as biochemical. To be noted: EGFR-kinase domain, 5.0 μM unlabeled ATP, read-out: Kinase activity.(C2): pIC50 (converted). The gist of the method:
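EGFR kinase domain (0.5 μg/well) phosphorylated poly(GT) with 5.0 μM ATP plus AT^33P, dose response 1·10^−6 to 1·10^−10 M. Flash Plate: biotin-poly(GT), Tris pH 8.0, 30° C, 60 min, scintillation counting. Filter: Tris pH 7.5 with MnCl2, 25° C, 10 min, 33P counted on glass-fiber filter by phosphorimaging.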
Target sequence in this assay (P00533 712-979 limits assumed): as the sequence (P00533 712-979 limits assumed) above

Molecules are shown by their SMILES.

As for `COc1cc2ncnc3c2cc1OC(=O)CCCCCOc1c(C)cccc1N3` [Compound 1, 4,6-ethanediylidene-19H-pyrimido[4,5-b][6,13,1]benzodioxaazacyclo-pentadecin-8(9H)-one, 10,11,12,13-tetrahydro-20-methoxy-15-methyl-], the IC50 was more than 100 nM in series [1]; more than 1000 nM in series [2]; more than 2000 nM in series [3]; more than 1000 nM in series [4]; more than 10000 nM in series [5].

`COc1cc2ncnc3c2cc1OCCCCCCOc1c(Cl)cccc1N3` [Compound 2, 4,6-ethanediylidene-19H-pyrimido[4,5-b][6,13,1]benzodioxaazacyclo-pentadecine, 15-chloro-8,9,10,11,12,13-hexahydro-20-methoxy-] displayed a melting point of 255.5 to 260.2 °C. The IC50 in series [1] was more than 100 nM. The IC50 in series [2] is more than 1000 nM. In series [3], the IC50 was more than 2000 nM. In addition, the IC50 in series [4] is more than 1000 nM. The IC50 in series [5] was 100 nM.

In turn, `COc1cc2ncnc3c2cc1OCCCCCCOc1ccc(Cl)cc1N3` [Compound 3, 4,6-ethanediylidene-19H-pyrimido[4,5-b][6,13,1]benzodioxaazacyclo-pentadecine, 17-chloro-8,9,10,11,12,13-hexahydro-20-methoxy-] displayed a melting point of 241.5 to 242.7 °C. Besides, the IC50 in series [1] is 3.61 nM. Moreover, in series [2], the IC50 was more than 1000 nM. Further, the IC50 in series [3] is 1350 nM. Further, the IC50 in series [4] is more than 1000 nM. Further, in series [5], the IC50 was 15.8 nM.

`COc1cc2ncnc3c2cc1OCCCCCOc1ccc(Cl)cc1N3` [Compound 4, 4,6-ethanediylidene-8H,18H-pyrimido[4,5-b][6,12,1]benzo-dioxaazacyclotetradecine, 16-chloro-9,10,11,12-tetrahydro-19-methoxy-] registered a melting point of 213.5 to 221.2 °C. Further, in series [1], the IC50 was 32.6 nM. The IC50 in series [2] amounted to 556 nM. Moreover, the IC50 in series [3] is 2880 nM. Also, in series [5], the IC50 was 50.1 nM.

Consider `COc1cc2ncnc3c2cc1OCCCCCCOc1ccccc1N3` [Compound 5, 4,6-ethanediylidene-19H-pyrimido[4,5-b][6,13,1]benzodioxaazacyclo-pentadecine, 8,9,10,11,12,13-hexahydro-20-methoxy-], for which the melting point lay in the range of 243.3 to 251.2 °C. Also, in series [1], the IC50 came to 81.1 nM. Further, the IC50 in series [2] is more than 1000 nM. The IC50 in series [3] is 4790 nM. In series [5], the IC50 was 398 nM.

The compound `COc1cc2ncnc3c2cc1OCCCCCCOc1ccc(Br)cc1N3` [Compound 6, 4,6-ethanediylidene-19H-pyrimido[4,5-b][6,13,1]benzodioxaazacyclo-pentadecine, 17-bromo-8,9,10,11,12,13-hexahydro-20-methoxy-] gave a melting point of 228.6 to 234.8 °C. Besides, the IC50 in series [1] was found to be 4.4 nM. The compound further registered an IC50 in series [2] of 359 nM. For the same compound, the IC50 in series [3] is 1820 nM. For the same compound, the IC50 in series [5] is 25.1 nM.

Take `COc1cc2ncnc3c2cc1OCCCCCCCOc1ccc(Cl)cc1N3` [Compound 7, 4,6-ethanediylidene-8H,20H-pyrimido[4,5-b][6,14,1]benzo-dioxaazacyclohexadecine, 18-chloro-9,10,11,12,13,14-hexahydro-21-methoxy-]: the melting point lay within 240.6 to 243.7 °C. Further, the IC50 in series [1] is 6.64 nM. In addition, the IC50 in series [2] is more than 1000 nM. Besides, the IC50 in series [3] is more than 10000 nM. Besides, the IC50 in series [5] was 79.4 nM.

`COc1cc2ncnc3c2cc1OCCCCCCCCOc1ccc(Cl)cc1N3` [Compound 8, 4,6-ethanediylidene-21H-pyrimido[4,5-b][6,15,1]benzodioxaazacyclo-heptadecine, 19-chloro-8,9,10,11,12,13,14,15-octahydro-22-methoxy-] came in with a melting point of 147.7 to 151.1 °C. Further, the IC50 in series [1] stood at 3.97 nM. For the same compound, the IC50 in series [2] turned out to be 329 nM. Further, the IC50 in series [3] is more than 10000 nM. Besides, the IC50 in series [5] was 31.6 nM.

Turning to `COc1cc2ncnc3c2cc1OCCCCCCCCCOc1ccc(Cl)cc1N3` [Compound 9, 4,6-ethanediylidene-8H,22H-pyrimido[4,5-b][6,16,1]benzo-dioxaazacyclooctadecine, 20-chloro-9,10,11,12,13,14,15,16-octahydro-23-methoxy-], the melting point fell in the range of 177.4 to 183.8 °C. The IC50 in series [1] came out at 6.79 nM. For the same compound, the IC50 in series [2] was more than 1000 nM. The IC50 in series [5] was 39.8 nM.

For the compound `COc1cc2ncnc3c2cc1OCCCCCN(C)Cc1ccc(Br)cc1N3` [Compound 22, 4,6-ethanediylidenepyrimido[4,5-b][6,1,12]benzoxadiazacyclo-pentadecine, 17-bromo-8,9,10,11,12,13,14,19-octahydro-20-methoxy-13-methyl-], the IC50 in series [2] was 38.4 nM; in series [3] it was 257 nM; in series [4], 1580 nM; in series [5], 15.8 nM.

Source of the values: patent US8394786B2, “Quinazoline derivatives” (Janssen Pharmaceutica N.V., priority 2003, dated 2013).
